Data published in patent publication USRE47404E1, “Viral hepatitis treatment” (priority 2006, dated 2019).
Like-named read-outs stand apart in the source and are kept apart here.

How the values were obtained:
[1] = system: HCV replication in AVA5 replicon cell line (subgenomic construct of genotype 1b); experiment: microbe, parasite or virus in culture
Protocol: (§1) Antiviral activity of nitazoxanide, tizoxanide, interferon α, ribavirin and 2′-C-methyl cytidine was assessed in five different HCV replicon cell lines: (1) AVA5, a subgenomic construct of genotype 1b (Blight et al., 2000, Science 290:1972-1974); (2) H/FL-Neo, a genotype 1a full length construct (Blight et al., 2003, Journal of Virology 77:3181-3190); (3) JWT, a subgenomic construct of genotype 1b (Pfeiffer and Kirkegaard, 2005, Journal of Virology, 79:2346-2355); (4) 4-3-10, a subgenomic construct of genotype 1b, developed by a protocol that involved serial passage of JWT cells in 100 μM for one month followed by 400 μM ribavirin for two weeks (Pfeiffer and Kirkegaard, 2005, Journal of Virology, 79:2346-2355); and (5) RP7, a subgenomic construct of genotype 1b (Elazar et al., 2003, Journal of Virology 77:6055-6061).
(§2) Antiviral activity for each test compound was determined as previously described (Okuse et al., 2005, Antiviral Research 65:23-34). Briefly, replicon cell lines were maintained as sub-confluent cultures on 96-well plates. Compounds were added daily for three days in fresh medium. Twenty-four hours after the last dose of compound, antiviral activity was determined by blot hybridization analysis of intracellular HCV RNA, and cytotoxicity was assessed by neutral red dye uptake. EC50, EC90, CC50 and selectivity index were calculated for each compound tested in a replicon cell line. […] Selectivity index=CC50 divided by EC50. EC50, EC90 and CC50 values (±standard deviations [S.D.]) were calculated by linear regression analysis using data combined from all treated cultures.
(§3) Nitazoxanide and tizoxanide were provided by Romark Laboratories, L.C. (Tampa, Fla. USA). […] Ribavirin was purchased from Sigma-Aldrich (St. Louis, Mo. USA). 2′-C-methyl cytidine (Pierra, et al. 2005, Nucleosides Nucleotides Nucleic Acids, 24:767-770) was purchased from Moraveck Biochemicals, Inc. (La Brea, Calif. USA). […] Ribavirin, nitazoxanide, tizoxanide and 2′-C-methyl cytidine were solubilized in 100% tissue culture grade DMSO (Sigma). […] Daily aliquots of test compounds were made from the stock solutions in individual tubes and stored at the appropriate temperatures. On each day of treatment, daily aliquots of the test compounds were suspended into culture medium at room temperature, and immediately added to the cell cultures, thereby subjecting each aliquot of test compound to the same, limited, number of freeze-thaw cycles.
Analyses of interactions between compounds used in combination treatments were performed using Calcusyn™ software (Biosoft, Cambridge, UK).

[2] = system: HCV replication in 4-3-10 replicon cell line (subgenomic genotype 1b, JWT cells passaged in ribavirin); experiment: microbe, parasite or virus in culture; type: cell-based, hepatitis C virus
Protocol: as §1, §2, §3

[3] = system: HCV replication in H/FL-Neo replicon cell line (genotype 1a full length construct); experiment: microbe, parasite or virus in culture; type: cell-based, hepatitis C virus
Protocol: as §1, §2, §3

[4] = system: HCV replication in JWT replicon cell line (subgenomic construct of genotype 1b); experiment: microbe, parasite or virus in culture; type: cell-based, hepatitis C virus
Protocol: as §1, §2, §3

[5] = system: HCV replication in RP7 replicon cell line (subgenomic construct of genotype 1b); experiment: microbe, parasite or virus in culture; type: cell-based, hepatitis C virus
Protocol: as §1, §2, §3
To evaluate the effect of interferon alpha following pre-treatment with nitazoxanide or tizoxanide, a parental replicon-containing cell line (RP-7) was serially passaged in increasing concentrations of nitazoxanide or tizoxanide. Anti-HCV activity of interferon alpha-2b was determined using the parental cell line and using the cell lines obtained after passage in nitazoxanide or tizoxanide. Anti-HCV activity was determined by the methods described above.
(§4) The parental replicon-containing cell line was established by electroporation of RNA transcribed in vitro off of the Sca-I-linearized Bart 79I plasmid into Huh-7 cells (Elazar et al., 2003). Bart79I encodes for a second-generation high-efficiency bi-cistronic sub-genomic replicon of genotype 1b containing a single adaptive mutation (S1179I) in the NS5A gene, and the neomycinphosphotransferase gene in the first cistron. The electroporated cells were plated along with naïve Huh-7 feeder cells and grown in medium—DMEM (4.5 g/l glucose, L-glutamine and sodium pyruvate—Mediatech 10-013-CV), 10% fetal bovine serum, 1% Penicillin-streptomycin, 1% L-glutamine (final concentration 2 mM), 1×MEM Non-Essential Amino Acids (100×) (Invitrogen)—and 1 mg/ml G418. […] One of the resulting colonies was isolated, expanded, passaged in 700 μg/ml G418, and termed RP-7.

[6] = Cytotoxicity, neutral red dye uptake, AVA5; type: cell-based; conditions: human, AVA5 HCV replicon cells
Protocol: (§5) Briefly, replicon cell lines were maintained as sub-confluent cultures on 96-well plates. Compounds were added daily for three days in fresh medium. Twenty-four hours after the last dose of compound, antiviral activity was determined by blot hybridization analysis of intracellular HCV RNA, and cytotoxicity was assessed by neutral red dye uptake. EC50, EC90, CC50 and selectivity index were calculated for each compound tested in a replicon cell line. EC50=drug concentration producing a 50% reduction of intracellular HCV RNA relative to the average levels in untreated cultures. EC90=drug concentration producing a 90% reduction of intracellular HCV RNA relative to the average levels in untreated cultures. CC50=drug concentration producing a 50% reduction of neutral red dye uptake relative to the average levels in untreated cultures. Selectivity index=CC50 divided by EC50. EC50, EC90 and CC50 values (±standard deviations [S.D.]) were calculated by linear regression analysis using data combined from all treated cultures.

AVA5 cells = experiment: Cytotoxicity, neutral red dye uptake, AVA5; type: cell-based; conditions: AVA5 cell cultures, mono and combination treatments (Table 2)
Protocol: as §5

[7] = Cytotoxicity, neutral red dye uptake, H/FL-Neo; type: cell-based; conditions: human
Protocol: as §5

[8] = Cytotoxicity, neutral red dye uptake, RP7; type: cell-based; conditions: human
Protocol: Selectivity index=CC50 divided by EC50.
as §4

[9] = system: HCV replication in five HCV genotype 1-derived replicon cell lines; experiment: Median over the five HCV replicon cell lines; type: cell-based, hepatitis C virus; conditions: Hepatitis C virus; median of the replicon cell lines
Protocol: as §1, §2

HCV replication = experiment: Effect of nitazoxanide pre-treatment and treatment duration (3 or 6 days) on antiviral activity in replicon cultures; type: cell-based, hepatitis C virus; conditions: Hepatitis C virus, expressed as 2′CMeC concentration; for EC50: read-out: EC50, 2′CMeC; for EC90: read-out: EC90, 2′CMeC
Protocol: as §2, with “Compounds were added daily for three days in fresh medium.” left out
Antiviral activity and cytotoxicity was determined 24 hours after the end of each respective treatment as described previously.

[10] = Hepatitis C virus, read-out: EC50
[11] = Hepatitis C virus, read-out: EC90

C[C@@]1(O)[C@H](O)[C@@H](CO)O[C@H]1n1ccc(N)nc1=O [2′-C-methyl cytidine]
S.I. (Selectivity Index) = CC50/EC50 ([1]; AVA5): >143
S.I. = CC50/EC50 ([1]; AVA5 cell cultures (Table 2)): >188
EC50 ([1]; Hepatitis C virus, Ava5, 72 h): 2.1 ± 0.2 µM
EC90 ([1]; Hepatitis C virus, Ava5, AVA5): 8.1 ± 0.7 µM
EC90 ([1]; Hepatitis C virus, GETYPE1B, Ava5, AVA5 cell cultures, mono and combination treatments (Table 2)): 8.3 ± 0.7 µM
S.I. (Selectivity Index) = CC50/EC50 ([2]; 4-3-10): >143
EC50 ([2]; Hepatitis C virus): 2.1 ± 0.1 µM
EC90 ([2]; Hepatitis C virus): 8 ± 0.9 µM
S.I. (Selectivity Index) = CC50/EC50 [3]: >556
EC50 [3, 10]: 1.8 ± 0.2 µM
EC90 [3, 11]: 8.1 ± 0.8 µM
S.I. (Selectivity Index) = CC50/EC50 [4]: >136
EC50 [4, 10]: 2.2 ± 0.1 µM
EC90 [4, 11]: 8.2 ± 0.7 µM
S.I. (Selectivity Index) = CC50/EC50 [5]: >150
EC50 [5, 10]: 2 ± 0.1 µM
EC90 [5, 11]: 9 ± 0.6 µM
CC50 at 3 days [6]: > 300 µM
CC50 (AVA5 cells): > 300 µM
CC50 at 3 days [7]: > 1000 µM
CC50 at 3 days [8]: > 300 µM
EC50 [9]: 2.1 µM
EC90 [9]: 8.1 µM
EC50 (HCV replication; 72 h, duration 3 days): 1.7 ± 0.2 µM
EC90 (HCV replication; 72 h, duration 3 days): 6.2 ± 0.5 µM
EC50 (HCV replication; 144 h, duration 6 days): 1.3 ± 0.2 µM
EC90 (HCV replication; 144 h, duration 6 days): 5.8 ± 0.9 µM
